Measured values: paper PMC11476419, “Analysis of Punicalin and Punicalagin Interaction with PDIA3 and PDIA1” (International Journal of Molecular Sciences, 2024)

How the values were obtained:
PDIA3 [1] = target: T1, PDIA3 (Homo sapiens, UniProt P30101); experiment: Glutathione reduction assay (di-E-GSSG), disulfide reductase activity; assay type: biochemical; conditions: di-E-GSSG substrate, PDIA3 20 nM, reducing conditions
T1 construct: The mature recombinant form (devoid of the N-terminal presence) of the human PDIA3 protein was expressed and purified; made in house
T1 sequence (P30101 25-505): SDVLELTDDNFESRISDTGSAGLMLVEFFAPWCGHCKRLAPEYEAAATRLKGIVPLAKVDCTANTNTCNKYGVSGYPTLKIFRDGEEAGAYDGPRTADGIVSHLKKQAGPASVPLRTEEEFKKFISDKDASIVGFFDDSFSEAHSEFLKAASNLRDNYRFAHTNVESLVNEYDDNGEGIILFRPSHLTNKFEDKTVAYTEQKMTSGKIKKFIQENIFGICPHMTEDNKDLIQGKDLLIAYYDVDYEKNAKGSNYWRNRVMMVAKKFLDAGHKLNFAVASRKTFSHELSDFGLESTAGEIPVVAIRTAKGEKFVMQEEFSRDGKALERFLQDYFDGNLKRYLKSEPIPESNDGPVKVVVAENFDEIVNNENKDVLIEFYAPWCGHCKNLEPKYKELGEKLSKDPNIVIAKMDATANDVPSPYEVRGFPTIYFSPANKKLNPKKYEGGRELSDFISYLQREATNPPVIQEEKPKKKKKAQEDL
Method: (§1) The enzymatic activity of PDIA proteins was evaluated by glutathione reduction and insulin turbidity assays. PDIA1 and PDIA3 are proteins capable of catalyzing oxidation-reduction and isomerization reactions through thiol groups and disulfide bonds. Because the action of punicalagin on the reductase activity of the two proteins was previously evaluated by glutathione reduction assay, the same assay was repeated using punicalin to compare the effect of both molecules on PDIs.
(§2) Di-eosin glutathione disulfide (di-E-GSSG) was synthesized by the reaction of eosin isothiocyanate with oxidized glutathione (GSSG) and used as a fluorogenic substrate of PDIs to monitor disulfide reductase activity according to the method of Raturi and Mutus, with some modifications. Protein activity was evaluated by monitoring the emission fluorescence increase (λem = 545 nm and λex = 525 nm), and the effect of punicalin (concentration ranging from 2 to 50 µM) was tested.
(§3) In both assays, the inhibition constants were extrapolated by GraphPad Prism 8.0 software (GraphPad Software, San Diego, CA, USA), plotting the obtained data as logarithm dose–response curves.

PDIA1 = target: T2, PDIA1 (Homo sapiens, UniProt P07237); experiment: as above; assay type: biochemical; conditions: di-E-GSSG substrate, PDIA1 20 nM, reducing conditions
T2 construct: The mature human PDIA1 with an N-terminal His6x-tag was expressed and purified; His6 (N); made in house
Method: as §1, §2, §3

T98G cells = experiment: Cell viability by MTT assay; assay type: cell-based, human
Method: (§4) The cell viability assay was used to evaluate the effect of punicalin as a PDI inhibitor. T98G and U87 MG glioblastoma cell lines were treated with increasing concentrations of punicalin, and the reduction in MTT substrate was determined after 24 h, 48 h, and 72 h. […] Here, we compared the ability of punicalin with that of punicalagin to prevent the growth of these cells (Figure 5).
(§5) T98G and U-87 MG cells were seeded into 96-well plates (10.000 cells/well). The effect of punicalin, at the final concentration of 1 µM to 20 µM, was evaluated on cell viability after 24 h and 48 h of incubation. To assess cell viability, the enzymatic reduction of MTT (3-(4,5-dimethylthiazol-2-yl)-2,5-diphenyl-2H-tetrazolium bromide) (Sigma-Aldrich, Milan, Italy, cat. M2128) to MTT formazan was used. Cell cultures were further incubated for 2 h in culture medium containing 0.5 mg/mL MTT. After 2 h of incubation, the solution was removed and the blue MTT formazan product was dissolved in DMSO (Sigma-Aldrich, cat. D8418). After 30 min at room temperature, the absorbance of the formazan solution was spectrophotometrically read at 570 nm using an Appliskan® plate reader (Thermo Fisher Scientific, Monza, Italy).

U87 MG cells = experiment: Cell viability by MTT assay; assay type: cell-based, human; conditions: 1 µM to 20 µM, 24 h, 48 h, 72 h
Method: as §4, §5

PDIA3 [2] = target: T1, PDIA3; experiment: Differential scanning fluorimetry (protein thermal shift); assay type: binding
Method: The effect of punicalin and punicalagin on the stability of both proteins was evaluated by differential scanning fluorimetry (DSF). Initially, PDIA1 and PDIA3 were incubated at 25 °C for 20 min with both substances at 5 µM and 20 µM concentrations. […] The reading was optimized at intervals of 0.2 °C every 5 s. Once the fluorescence profile was obtained, the data were analyzed with the GraphPad prism program, by either fitting data with a Boltzmann equation or calculating the first derivative. In DSF analyses, a gradual increase in fluorescence is observed, due to a conformational change in the protein, which reaches a maximum value and then decreases because of protein precipitation.
To evaluate Tm, we focused the attention on the main transition, and thus we fitted, with a Boltzmann equation, the data in the range of 25–55 °C for PDIA3 and in the range of 45–70 °C for PDIA1. Again, the two substances show a destabilizing effect, which was more evident for PDIA3 than for PDIA1. In fact, punicalagin and punicalin at a 20 µM concentration cause a shift of Tm of at least 6 °C in the case of PDIA3, while this is approximately 3 °C for PDIA1 (Figure 7).
Protein stability in the absence and presence of punicalagin/punicalin was tested by means of the fluorescence-based thermal stability assay or differential scanning fluorimetry (DSF) developed by Pantoliano and coworkers. DSF records the fluorescence emission signal from the binding of a dye (SYPRO orange) to the exposed hydrophobic patches upon protein unfolding. Fluorescence measurements were performed using a CFX96 Connect RT-PCR instrument (BioRad, Hercules, CA, USA). Aliquots of 18 μL of protein solution (2 μM), freshly diluted in Tris Buffered saline (50 mM TrisHCl, pH 8.0, 150 mM NaCl) containing 0.1 mM DTT, 0.2 mM EDTA, and 1: 1000 dilution of SYPRO Orange (50 mM stock solution in DMSO), were distributed in a 96-well plate. Sample wells were added with punicalagin or punicalin at a final concentration of 5 uM or 20 μM by adding 2 μL of a 10-fold concentrated freshly prepared stock solution. As control, the protein solution was added with 2 μL of the dilution buffer. A melting point analysis was recorded by increasing the temperature from 25 to 70 °C with an increment of 0.2 °C every 5 s and reading, at each temperature, the fluorescence in fluorescence resonance energy transfer mode (FRET). Each measure was the average of three sample well readings, and each DSF experiment was repeated at least three times. To calculate Tm values, DSF data from the melting curve were exported and fitted to a Boltzmann equation using GraphPad software. The effect of punicalagin and punicalin was evaluated comparing the Tm values in the presence and absence of each molecule.

T2 sequence (P07237 18-508): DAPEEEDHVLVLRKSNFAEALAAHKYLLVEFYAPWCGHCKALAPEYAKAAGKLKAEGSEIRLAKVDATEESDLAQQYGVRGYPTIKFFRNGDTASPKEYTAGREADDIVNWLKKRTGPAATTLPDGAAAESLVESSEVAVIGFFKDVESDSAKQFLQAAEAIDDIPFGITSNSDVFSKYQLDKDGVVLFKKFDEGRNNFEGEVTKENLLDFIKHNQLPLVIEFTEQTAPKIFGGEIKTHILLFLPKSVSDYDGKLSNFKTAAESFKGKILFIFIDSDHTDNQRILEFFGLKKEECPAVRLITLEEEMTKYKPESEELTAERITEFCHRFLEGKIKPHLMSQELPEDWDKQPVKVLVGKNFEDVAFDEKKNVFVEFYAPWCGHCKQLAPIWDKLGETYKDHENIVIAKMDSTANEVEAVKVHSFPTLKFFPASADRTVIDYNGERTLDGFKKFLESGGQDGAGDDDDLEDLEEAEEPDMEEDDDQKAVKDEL

## O=C1OC[C@H]2OC(O)[C@H](O)[C@@H](O)[C@@H]2OC(=O)c2cc(O)c(O)c(O)c2-c2c(O)c(O)c3oc(=O)c4c(c(O)c(O)c5oc(=O)c2c3c54)-c2c1cc(O)c(O)c2O (mixture of isomers) [Punicalin, punicalin]
PDIA3 [1]
  IC50: 10.7 µM
PDIA1
  IC50: 58.3 µM
T98G cells; 1 µM to 20 µM, 24 h, 48 h, 72 h
  effect on cell viability (MTT): concentration- and time-dependent decrease in cell viability
T98G cells; 20 µM
  effect on cell viability: significantly reduced the cell viability
U87 MG cells
  effect on cell viability (MTT): the effect becomes evident only at the highest concentration
PDIA3 [2]; PDIA3, compound 20 µM
  left shift of first transition (first-derivative graph): about 3 °C
  shift towards lower temperature of second transition (first-derivative graph): more than 10 °C
PDIA3 [2]; PDIA3, compound 20 µM, fit range 25–55 °C
  shift of Tm (destabilizing, Boltzmann fit): at least 6 °C
PDIA3 [2]; PDIA3 alone Tm 46 °C
  Tm of PDIA3 after addition of compound: below 40 °C
PDIA3 [2]; abstract statement
  change in the thermal stability of PDIA3, shift: up to 8 °C
